Values quoted from earlier work, collected in patent publication US11033514B2 (priority 2016, dated 2021).

[1] = Nguyen et al. (2009), oral dose 5 grams

SMILES	Half life in blood (in vivo, po)	Plasma level (in vivo, po)	Half-Life (Goldberg et al. (2003), oral dose 25 mg)	% of orally administered dose of resveratrol bioavailable [1]	Unconjugated/Free Resveratrol in plasma (Bioavailability) [1]
Oc1ccc(/C=C/c2cc(O)cc(O)c2)cc1 [Synthetic resveratrol]	0.5 h	5 to 40 nM	–	–	–
Oc1ccc(/C=C/c2cc(O)cc(O)c2)cc1 [resveratrol, 3,5,4′-trihydroxy-trans-stilbene]	–	–	2 h	(0.012% of orally	2400 nmol/L
